Test results reported in ChEMBL document CHEMBL3046429, “Synthesis, molecular modeling study, preliminary antibacterial, and antitumor evaluation of N-substituted naphthalimides and their structural analogues” (2013).
Converted amounts (≈) assume the structure as drawn.

Legend:
Format in all cases: functional
SF-268 = assay: Growth inhibition of Homo sapiens (human) SF268 cells at 10 uM after 48 hr by coulter counter analysis; settings: SF-268, 48 h, read-out: GI
UACC-62 = assay: Growth inhibition of Homo sapiens (human) UACC62 cells at 10 uM after 48 hr by coulter counter analysis; settings: UACC-62, 48 h, read-out: GI
SK-MEL-28 = assay: Growth inhibition of Homo sapiens (human) SK-MEL-28 cells at 10 uM after 48 hr by coulter counter analysis; settings: SK-MEL-28, 48 h, read-out: GI
SK-MEL-5 = assay: Growth inhibition of Homo sapiens (human) SK-MEL-5 cells at 10 uM after 48 hr by coulter counter analysis; settings: SK-MEL-5, 48 h, read-out: GI
SK-MEL-2 = assay: Growth inhibition of Homo sapiens (human) SK-MEL-2 cells at 10 uM after 48 hr by coulter counter analysis; settings: SK-MEL-2, 48 h, read-out: GI
RXF 393 = assay: Growth inhibition of Homo sapiens (human) RXF393 cells at 10 uM after 48 hr by coulter counter analysis; settings: RXF 393, 48 h, read-out: GI
K562 = assay: Growth inhibition of Homo sapiens (human) K562 cells at 10 uM after 48 hr by coulter counter analysis; settings: K562, 48 h, read-out: GI
HCC 2998 = assay: Growth inhibition of Homo sapiens (human) HCC2998 cells at 10 uM after 48 hr by coulter counter analysis; settings: HCC 2998, 48 h, read-out: GI
COLO 205 = assay: Growth inhibition of Homo sapiens (human) COLO205 cells at 10 uM after 48 hr by coulter counter analysis; settings: COLO 205, 48 h, read-out: GI
EKVX = assay: Growth inhibition of Homo sapiens (human) EKVX cells at 10 uM after 48 hr by coulter counter analysis; settings: read-out: GI
OVCAR-8 = assay: Growth inhibition of Homo sapiens (human) OVCAR8 cells at 10 uM after 48 hr by coulter counter analysis; settings: OVCAR-8, 48 h, read-out: GI
MDA-MB-231 = assay: Growth inhibition of Homo sapiens (human) MDA-MB-231/ATCC cells at 10 uM after 48 hr by coulter counter analysis; settings: MDA-MB-231, 48 h, read-out: GI
BT-549 = assay: Growth inhibition of Homo sapiens (human) BT549 cells at 10 uM after 48 hr by coulter counter analysis; settings: BT-549, 48 h, read-out: GI
HCT-15 = assay: Growth inhibition of Homo sapiens (human) HCT15 cells at 10 uM after 48 hr by coulter counter analysis; settings: HCT-15, 48 h, read-out: GI
HCT-116 = assay: Growth inhibition of Homo sapiens (human) HCT116 cells at 10 uM after 48 hr by coulter counter analysis; settings: HCT-116, 48 h, read-out: GI
A549 = assay: Growth inhibition of Homo sapiens (human) A549/ATCC cells at 10 uM after 48 hr by coulter counter analysis; settings: A549, 48 h, read-out: GI
NCI-H522 = assay: Growth inhibition of Homo sapiens (human) NCI-H522 cells at 10 uM after 48 hr by coulter counter analysis; settings: NCI-H522, 48 h, read-out: GI
SN12C = assay: Growth inhibition of Homo sapiens (human) SN12C cells at 10 uM after 48 hr by coulter counter analysis; settings: read-out: GI
Escherichia coli = assay: Antibacterial activity against Escherichia coli assessed as growth inhibition after 24 hr by two-fold serial dilution method
Staphylococcus aureus = assay: Antibacterial activity against Staphylococcus aureus assessed as growth inhibition after 24 hr by two fold serial dilution method

**Q.** Which inhibition of growth at 10 µM (SF-268) does the source give for `O=C1c2nccnc2C(=O)N1c1c(Cl)cc(Cl)cc1Cl` here?
**A.** 7.64%

**Q.** What about the inhibition of growth at 10 µM (UACC-62) of the same molecule?
**A.** 1.42%

**Q.** What about the inhibition of growth at 10 µM (SK-MEL-28) of the same molecule?
**A.** -3.36%

**Q.** What about the inhibition of growth at 10 µM (SK-MEL-5) of the same molecule?
**A.** -6.79%

**Q.** What about the inhibition of growth at 10 µM (SK-MEL-2) of the same molecule?
**A.** -0.16%

**Q.** And the inhibition of growth at 10 µM (RXF 393)?
**A.** -25.2%

**Q.** What about the inhibition of growth at 10 µM (K562) of the same molecule?
**A.** 10.1%

**Q.** And the inhibition of growth at 10 µM (HCC 2998)?
**A.** -4.24%

**Q.** And the inhibition of growth at 10 µM (COLO 205)?
**A.** 8.27%

**Q.** And the inhibition of growth at 10 µM (EKVX)?
**A.** 8.2%

**Q.** What about the inhibition of growth at 10 µM (OVCAR-8) of the same molecule?
**A.** 11%

**Q.** And the inhibition of growth at 10 µM (MDA-MB-231)?
**A.** 7.23%

**Q.** And the inhibition of growth at 10 µM (BT-549)?
**A.** 4.48%

**Q.** What about the inhibition of growth at 10 µM (HCT-15) of the same molecule?
**A.** 7.09%

**Q.** What about the inhibition of growth at 10 µM (HCT-116) of the same molecule?
**A.** 1.17%

**Q.** And the inhibition of growth at 10 µM (A549)?
**A.** -11.7%

**Q.** What about the inhibition of growth at 10 µM (NCI-H522) of the same molecule?
**A.** 14.9%

**Q.** What about the inhibition of growth at 10 µM (SN12C) of the same molecule?
**A.** 22.7%

**Q.** What about the “-logMIC” value (Escherichia coli) of the same molecule?
**A.** 4.68

**Q.** What about the MIC (Escherichia coli; Escherichia coli, 24 h) of the same molecule?
**A.** 6.9 µg/mL (≈ 21 µM)

**Q.** And the “-logMIC” value (Staphylococcus aureus)?
**A.** 4.22

**Q.** What about the MIC (Staphylococcus aureus; Staphylococcus aureus, 24 h) of the same molecule?
**A.** 20 µg/mL (≈ 60.9 µM)
